The results in this text go back to patent US5486518A, “4-indolylpiperazinyl derivatives” (American Home Products Corporation, priority 1995, dated 1996).

Molecules are shown by their SMILES.

This test concerns the target T1, serotonin 5-HT1 A receptor (Rattus norvegicus, UniProt P19327).
T1 construct: rat hippocampal membrane homogenate; from tissue; host or cells: rat hippocampus (membrane homogenate)
T1 sequence (P19327 1-422): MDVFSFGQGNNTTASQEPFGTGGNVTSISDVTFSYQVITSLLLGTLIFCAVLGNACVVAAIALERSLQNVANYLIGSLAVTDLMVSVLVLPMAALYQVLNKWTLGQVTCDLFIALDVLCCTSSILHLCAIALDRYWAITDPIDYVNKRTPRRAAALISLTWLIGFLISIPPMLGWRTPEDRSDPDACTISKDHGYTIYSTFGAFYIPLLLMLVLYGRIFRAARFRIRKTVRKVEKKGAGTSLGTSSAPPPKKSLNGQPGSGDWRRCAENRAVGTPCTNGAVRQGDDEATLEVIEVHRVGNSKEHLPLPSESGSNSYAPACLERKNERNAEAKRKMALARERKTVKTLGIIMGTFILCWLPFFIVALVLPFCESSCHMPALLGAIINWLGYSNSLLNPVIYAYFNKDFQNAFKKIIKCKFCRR
Description: displacement of [^3 H]8-OHDPAT from the 5-HT1 A serotonin receptors in rat hippocampal membrane homogenate. It counts as binding. An excerpt: High affinity for the serotonin 5-HT1 A receptor was established by testing the claimed compound's ability to displace [^3 H]8-OHDPAT (dipropylaminotetralin) from the 5-HT1 A serotonin receptors in rat hippocampal membrane homogenate following the procedure of B. S. Alexander and M. D. Wood, J. Pharm. Pharmacol. 1988, 40, 888-891.

`O=C(N[C@@H](CN1CCN(c2cccc3[nH]ccc23)CC1)c1ccccc1)C1CCCCC1` [Example 1] returned an IC50 of 2 nM.

Turning to `CC(=O)N[C@@H](CN1CCN(c2cccc3[nH]ccc23)CC1)c1ccccc1` [Example 2], the IC50 amounted to 35.5 nM.

As to `O=C(N[C@@H](CN1CCN(c2cccc3[nH]ccc23)CC1)c1ccccc1)c1ccccc1` [Example 3], the IC50 was 5 nM.

Take `O=C(N[C@H](Cc1ccccc1)CN1CCN(c2cccc3[nH]ccc23)CC1)C1CCCCC1` [Example 4, (R)- Cyclohexane Carboxylic Acid 1-Phenylmethyl-2-[1-[4-(4-indolyl)piperazinyl]] ethylamide]: the concentration for half-maximal inhibition (IC50) was 8.3 nM. Compared with the last compound, the IC50 is about 1.7-fold higher.

A word on the IC50: it is the point on the concentration scale where inhibition reaches its midpoint. A higher IC50 goes with weaker potency.
